Reference: article PMC5053573, “Structure-Based Design of Tetrahydroisoquinoline-7-carboxamides as Selective Discoidin Domain Receptor 1 (DDR1) Inhibitors” (Journal of Medicinal Chemistry, 2016)

Experiments:
[1] = Pharmacokinetics study in SD rats; type: in vivo; details: male, Sprague-Dawley, rat, whole blood, iv, 4 mg/kg, read-out: CL (L/hr/kg) in rats (converted)
[2] = target: LTK (Homo sapiens, UniProt P29376); assay: biochemical; details: competition binding; read-out: %Ctrl @ 1000nM
[3] = target: CDK11 (Homo sapiens, UniProt Q9BWU1); assay: KINOMEscan binding constant, CDK11; details: read-out: Binding affinity (Kd, nM) CDK11
CDK11, sequence (Q9BWU1 whole entry): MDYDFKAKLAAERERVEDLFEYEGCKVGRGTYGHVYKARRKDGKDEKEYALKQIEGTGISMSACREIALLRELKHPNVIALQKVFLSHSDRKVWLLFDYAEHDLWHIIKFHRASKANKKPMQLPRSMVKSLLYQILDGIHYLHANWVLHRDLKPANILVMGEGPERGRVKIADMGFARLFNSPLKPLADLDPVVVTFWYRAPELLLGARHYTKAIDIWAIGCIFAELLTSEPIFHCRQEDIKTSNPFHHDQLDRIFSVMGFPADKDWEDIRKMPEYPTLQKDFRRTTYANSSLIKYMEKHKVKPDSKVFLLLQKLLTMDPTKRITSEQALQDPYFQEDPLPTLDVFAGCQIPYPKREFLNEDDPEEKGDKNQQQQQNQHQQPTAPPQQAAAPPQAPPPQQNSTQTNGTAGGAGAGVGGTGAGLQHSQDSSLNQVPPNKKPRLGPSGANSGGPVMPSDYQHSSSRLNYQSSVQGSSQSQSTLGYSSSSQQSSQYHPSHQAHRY

[4] = target: PKNB(M.tuberculosis) (Mycobacterium tuberculosis, UniProt P9WI81); assay: biochemical; details: read-out: %Ctrl @ 1000nM
PKNB(M.tuberculosis), sequence (P9WI81 whole entry, looked up): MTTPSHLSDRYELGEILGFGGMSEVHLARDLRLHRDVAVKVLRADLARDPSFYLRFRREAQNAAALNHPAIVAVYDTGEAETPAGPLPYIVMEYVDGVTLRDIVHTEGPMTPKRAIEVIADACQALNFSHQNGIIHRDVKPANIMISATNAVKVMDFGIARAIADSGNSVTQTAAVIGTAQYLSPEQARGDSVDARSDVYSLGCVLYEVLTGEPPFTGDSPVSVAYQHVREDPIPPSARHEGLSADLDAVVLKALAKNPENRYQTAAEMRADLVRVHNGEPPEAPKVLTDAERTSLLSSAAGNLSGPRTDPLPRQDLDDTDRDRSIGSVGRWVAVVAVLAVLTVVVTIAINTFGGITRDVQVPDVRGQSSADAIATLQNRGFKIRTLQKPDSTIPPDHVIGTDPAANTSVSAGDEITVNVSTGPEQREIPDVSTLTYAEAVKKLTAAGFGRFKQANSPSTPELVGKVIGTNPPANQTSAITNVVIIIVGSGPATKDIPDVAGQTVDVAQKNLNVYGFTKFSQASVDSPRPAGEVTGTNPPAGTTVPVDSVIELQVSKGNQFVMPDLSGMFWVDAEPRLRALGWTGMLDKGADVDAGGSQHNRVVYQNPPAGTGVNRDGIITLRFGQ

[5] = target: T1, PFPK5(P.falciparum) (Plasmodium falciparum, UniProt P61075); assay: biochemical; details: competition binding; read-out: %Ctrl @ 1000nM
T1 construct: gene CRK2

[6] = target: PIK3C2G (Homo sapiens, UniProt O75747); assay: biochemical; details: read-out: %Ctrl @ 1000nM
[7] = target: EPHA5 (Homo sapiens, UniProt P54756); assay: biochemical; details: read-out: %Ctrl @ 1000nM
EPHA5, sequence (P54756 whole entry): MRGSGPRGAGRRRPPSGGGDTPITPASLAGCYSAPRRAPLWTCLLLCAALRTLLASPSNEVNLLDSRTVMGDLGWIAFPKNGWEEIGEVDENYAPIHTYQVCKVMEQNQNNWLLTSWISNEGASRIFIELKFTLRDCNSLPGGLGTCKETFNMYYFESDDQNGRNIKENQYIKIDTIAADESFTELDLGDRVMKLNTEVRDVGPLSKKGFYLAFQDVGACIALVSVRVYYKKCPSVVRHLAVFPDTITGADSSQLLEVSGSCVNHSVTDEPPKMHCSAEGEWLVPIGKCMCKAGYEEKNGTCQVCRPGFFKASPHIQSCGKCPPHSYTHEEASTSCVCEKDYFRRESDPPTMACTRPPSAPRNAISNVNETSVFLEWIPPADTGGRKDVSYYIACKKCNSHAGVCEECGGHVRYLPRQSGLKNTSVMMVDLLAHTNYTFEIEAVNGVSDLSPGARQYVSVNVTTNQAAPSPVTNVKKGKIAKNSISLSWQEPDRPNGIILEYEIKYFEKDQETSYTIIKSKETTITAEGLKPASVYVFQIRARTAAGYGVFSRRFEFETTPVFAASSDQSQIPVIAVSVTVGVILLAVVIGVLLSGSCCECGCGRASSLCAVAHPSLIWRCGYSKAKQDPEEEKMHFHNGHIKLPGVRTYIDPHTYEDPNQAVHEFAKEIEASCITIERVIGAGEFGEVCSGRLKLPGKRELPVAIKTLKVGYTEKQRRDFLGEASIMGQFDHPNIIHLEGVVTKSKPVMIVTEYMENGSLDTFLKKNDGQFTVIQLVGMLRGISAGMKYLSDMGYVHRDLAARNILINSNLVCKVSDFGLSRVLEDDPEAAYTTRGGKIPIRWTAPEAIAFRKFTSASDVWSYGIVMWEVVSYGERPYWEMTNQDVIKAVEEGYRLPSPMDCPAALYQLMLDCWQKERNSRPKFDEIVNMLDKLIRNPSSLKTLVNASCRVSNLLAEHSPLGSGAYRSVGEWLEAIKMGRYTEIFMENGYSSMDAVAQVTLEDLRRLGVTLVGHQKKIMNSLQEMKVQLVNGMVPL

[8] = target: FLT3(D835V) (Homo sapiens, UniProt P36888, D835V); assay: biochemical; details: read-out: %Ctrl @ 1000nM
[9] = target: EPHA2 (Homo sapiens, UniProt P29317); assay: biochemical; details: read-out: %Ctrl @ 1000nM
[10] = target: T2, JNK1 (Homo sapiens, UniProt P45983); assay: biochemical; details: read-out: %Ctrl @ 1000nM
T2 construct: gene MAPK8

[11] = target: T3, MST1 (Homo sapiens, UniProt Q13043); assay: biochemical; details: read-out: %Ctrl @ 1000nM
T3 construct: gene STK4

[12] = target: KIT(D816H) (Homo sapiens, UniProt P10721, D816H); assay: biochemical; details: read-out: %Ctrl @ 1000nM
KIT(D816H), sequence (P10721 whole entry D816H): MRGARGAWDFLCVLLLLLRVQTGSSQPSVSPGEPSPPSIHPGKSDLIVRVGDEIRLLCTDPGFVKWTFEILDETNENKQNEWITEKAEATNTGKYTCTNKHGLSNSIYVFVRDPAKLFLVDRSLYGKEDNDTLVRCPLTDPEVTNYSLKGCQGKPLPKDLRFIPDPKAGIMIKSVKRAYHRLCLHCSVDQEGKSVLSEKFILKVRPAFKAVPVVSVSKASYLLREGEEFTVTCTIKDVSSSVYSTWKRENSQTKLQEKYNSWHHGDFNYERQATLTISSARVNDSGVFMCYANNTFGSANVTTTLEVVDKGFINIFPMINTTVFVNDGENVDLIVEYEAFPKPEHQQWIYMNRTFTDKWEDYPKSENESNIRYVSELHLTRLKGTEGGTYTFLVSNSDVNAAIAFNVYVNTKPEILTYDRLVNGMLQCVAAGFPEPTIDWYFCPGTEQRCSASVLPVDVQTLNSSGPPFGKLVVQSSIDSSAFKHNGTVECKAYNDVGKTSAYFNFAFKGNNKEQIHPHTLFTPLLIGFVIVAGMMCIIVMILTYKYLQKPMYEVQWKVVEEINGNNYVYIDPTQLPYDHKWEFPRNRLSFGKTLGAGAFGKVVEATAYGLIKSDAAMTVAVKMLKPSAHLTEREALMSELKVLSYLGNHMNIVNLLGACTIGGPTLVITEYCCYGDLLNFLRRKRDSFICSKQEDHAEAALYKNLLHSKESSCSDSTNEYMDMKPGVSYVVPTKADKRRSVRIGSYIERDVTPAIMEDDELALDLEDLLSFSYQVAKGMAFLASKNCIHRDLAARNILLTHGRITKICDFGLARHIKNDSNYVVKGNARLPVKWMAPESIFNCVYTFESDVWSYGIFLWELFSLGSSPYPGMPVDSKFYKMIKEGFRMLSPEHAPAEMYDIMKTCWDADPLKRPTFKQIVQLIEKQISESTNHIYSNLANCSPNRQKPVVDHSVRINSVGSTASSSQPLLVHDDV

[13] = target: PIK3CA(Q546K) (Homo sapiens, UniProt P42336, Q546K); assay: biochemical; details: read-out: %Ctrl @ 1000nM
[14] = target: NEK4 (Homo sapiens, UniProt P51957); assay: biochemical; details: read-out: %Ctrl @ 1000nM
[15] = target: T4, PKAC-alpha (Homo sapiens, UniProt P17612); assay: biochemical; details: read-out: %Ctrl @ 1000nM
T4 construct: gene PRKACA

[16] = target: CSNK2A2 (Homo sapiens, UniProt P19784); assay: biochemical; details: read-out: %Ctrl @ 1000nM
[17] = target: SRMS (Homo sapiens, UniProt Q9H3Y6); assay: biochemical; details: read-out: %Ctrl @ 1000nM
[18] = target: MAPKAPK5 (Homo sapiens, UniProt Q8IW41); assay: biochemical; details: read-out: %Ctrl @ 1000nM
[19] = target: ABL1(F317I)-phosphorylated (Homo sapiens, UniProt P00519, F317I); assay: biochemical; details: read-out: %Ctrl @ 1000nM
[20] = target: PIP5K1A (Homo sapiens, UniProt Q99755); assay: biochemical; details: read-out: %Ctrl @ 1000nM
[21] = target: SBK1 (Homo sapiens, UniProt Q52WX2); assay: biochemical; details: read-out: %Ctrl @ 1000nM
[22] = target: EPHB3 (Homo sapiens, UniProt P54753); assay: biochemical; details: read-out: %Ctrl @ 1000nM
[23] = target: T5, MST2 (Homo sapiens, UniProt Q13188); assay: biochemical; details: read-out: %Ctrl @ 1000nM
T5 construct: gene STK3

[24] = target: FGFR2 (Homo sapiens, UniProt P21802); assay: biochemical; details: read-out: %Ctrl @ 1000nM
[25] = target: EPHB2 (Homo sapiens, UniProt P29323); assay: biochemical; details: read-out: %Ctrl @ 1000nM
[26] = target: T6, NIK (Homo sapiens, UniProt Q99558); assay: biochemical; details: read-out: %Ctrl @ 1000nM
T6 construct: gene MAP3K14
T6 sequence (Q99558 whole entry): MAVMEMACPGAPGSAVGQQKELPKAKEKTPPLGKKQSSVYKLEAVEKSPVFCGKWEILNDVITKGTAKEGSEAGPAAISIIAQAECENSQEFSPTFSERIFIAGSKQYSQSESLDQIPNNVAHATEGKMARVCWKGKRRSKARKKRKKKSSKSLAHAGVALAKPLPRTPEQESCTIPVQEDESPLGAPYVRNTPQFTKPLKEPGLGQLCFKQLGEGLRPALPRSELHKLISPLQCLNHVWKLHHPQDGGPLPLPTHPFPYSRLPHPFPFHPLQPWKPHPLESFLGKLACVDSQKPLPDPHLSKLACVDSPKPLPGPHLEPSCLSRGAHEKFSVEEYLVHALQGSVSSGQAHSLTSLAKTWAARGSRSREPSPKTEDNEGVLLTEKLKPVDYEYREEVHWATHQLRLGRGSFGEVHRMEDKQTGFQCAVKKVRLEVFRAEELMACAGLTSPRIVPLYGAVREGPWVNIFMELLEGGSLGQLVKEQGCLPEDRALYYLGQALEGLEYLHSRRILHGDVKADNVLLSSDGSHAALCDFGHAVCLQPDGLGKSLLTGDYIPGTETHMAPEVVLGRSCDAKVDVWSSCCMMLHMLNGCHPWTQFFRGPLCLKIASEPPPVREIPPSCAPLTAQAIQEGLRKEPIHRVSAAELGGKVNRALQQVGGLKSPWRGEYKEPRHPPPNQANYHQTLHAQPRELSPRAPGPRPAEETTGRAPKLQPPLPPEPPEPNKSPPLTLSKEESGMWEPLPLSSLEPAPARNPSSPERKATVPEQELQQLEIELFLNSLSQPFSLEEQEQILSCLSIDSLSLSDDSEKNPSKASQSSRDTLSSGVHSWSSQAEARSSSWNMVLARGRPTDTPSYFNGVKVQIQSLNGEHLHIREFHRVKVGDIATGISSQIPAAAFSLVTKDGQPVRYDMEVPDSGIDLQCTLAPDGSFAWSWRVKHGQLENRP

[27] = target: EPHA4 (Homo sapiens, UniProt P54764); assay: biochemical; details: read-out: %Ctrl @ 1000nM
[28] = target: T7, PIP5K2B (Homo sapiens, UniProt P78356); assay: biochemical; details: read-out: %Ctrl @ 1000nM
T7 construct: gene PIP4K2B

[29] = target: PIK3CG (Homo sapiens, UniProt P48736); assay: biochemical; details: read-out: %Ctrl @ 1000nM
[30] = target: HIPK4 (Homo sapiens, UniProt Q8NE63); assay: biochemical; details: read-out: %Ctrl @ 1000nM
[31] = target: CHEK1 (Homo sapiens, UniProt O14757); assay: biochemical; details: read-out: %Ctrl @ 1000nM
[32] = target: BLK (Homo sapiens, UniProt P51451); assay: biochemical; details: read-out: %Ctrl @ 1000nM
[33] = target: PIK3CA(E542K) (Homo sapiens, UniProt P42336, E542K); assay: biochemical; details: read-out: %Ctrl @ 1000nM
[34] = target: T8, PFCDPK1(P.falciparum) (Plasmodium falciparum, UniProt P62344); assay: biochemical; details: competition binding; read-out: %Ctrl @ 1000nM
T8 construct: gene CDPK1

LTK, sequence (P29376 whole entry): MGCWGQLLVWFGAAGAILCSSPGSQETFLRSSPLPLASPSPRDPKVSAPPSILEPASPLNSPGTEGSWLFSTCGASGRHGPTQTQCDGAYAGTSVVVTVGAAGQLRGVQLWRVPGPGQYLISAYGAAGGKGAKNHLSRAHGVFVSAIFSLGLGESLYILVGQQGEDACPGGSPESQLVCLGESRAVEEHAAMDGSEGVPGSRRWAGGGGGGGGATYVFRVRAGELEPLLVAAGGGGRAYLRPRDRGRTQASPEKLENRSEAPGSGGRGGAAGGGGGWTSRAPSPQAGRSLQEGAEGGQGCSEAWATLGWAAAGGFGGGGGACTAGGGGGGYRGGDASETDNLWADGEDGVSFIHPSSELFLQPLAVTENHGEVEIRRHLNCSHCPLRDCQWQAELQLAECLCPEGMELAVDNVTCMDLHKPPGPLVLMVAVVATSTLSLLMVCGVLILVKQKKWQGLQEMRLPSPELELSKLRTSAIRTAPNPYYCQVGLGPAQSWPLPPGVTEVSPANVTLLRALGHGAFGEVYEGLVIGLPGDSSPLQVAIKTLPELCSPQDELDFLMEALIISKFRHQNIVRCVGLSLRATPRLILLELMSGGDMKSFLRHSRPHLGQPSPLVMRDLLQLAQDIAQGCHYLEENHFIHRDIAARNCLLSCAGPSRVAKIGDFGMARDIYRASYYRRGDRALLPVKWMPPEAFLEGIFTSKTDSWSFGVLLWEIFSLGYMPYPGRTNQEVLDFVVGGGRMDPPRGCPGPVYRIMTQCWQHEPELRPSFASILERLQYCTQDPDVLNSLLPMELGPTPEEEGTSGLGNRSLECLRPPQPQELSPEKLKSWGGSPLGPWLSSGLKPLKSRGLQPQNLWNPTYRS

## Cc1cn(-c2cc(NC(=O)c3ccc4c(c3)CN(c3cncnc3)C[C@@H]4C)cc(C(F)(F)F)c2)cn1 [Compound 6j]
[1]
  clearance: 17.6 L/h/kg
[2]
  remaining binding at 1 µM: 73%
[3]
  Kd: 370 nM
[4]
  remaining binding at 1 µM: 100%
[5]
  remaining binding at 1 µM: 100%
[6]
  remaining activity at 1 µM: 86%
[7]
  remaining activity at 1 µM: 74%
[8]
  remaining activity at 1 µM: 48%
[9]
  remaining activity at 1 µM: 65%
[10]
  remaining activity at 1 µM: 97%
[11]
  remaining activity at 1 µM: 85%
[12]
  remaining activity at 1 µM: 100%
[13]
  remaining activity at 1 µM: 100%
[14]
  remaining activity at 1 µM: 98%
[15]
  remaining activity at 1 µM: 87%
[16]
  remaining activity at 1 µM: 93%
[17]
  remaining activity at 1 µM: 100%
[18]
  remaining activity at 1 µM: 100%
[19]
  remaining activity at 1 µM: 82%
[20]
  remaining activity at 1 µM: 100%
[21]
  remaining activity at 1 µM: 100%
[22]
  remaining activity at 1 µM: 82%
[23]
  remaining activity at 1 µM: 100%
[24]
  remaining activity at 1 µM: 74%
[25]
  remaining activity at 1 µM: 85%
[26]
  remaining activity at 1 µM: 100%
[27]
  remaining activity at 1 µM: 77%
[28]
  remaining activity at 1 µM: 81%
[29]
  remaining activity at 1 µM: 100%
[30]
  remaining activity at 1 µM: 87%
[31]
  remaining activity at 1 µM: 96%
[32]
  remaining activity at 1 µM: 68%
[33]
  remaining activity at 1 µM: 100%
[34]
  remaining binding at 1 µM: 93%
